{"source": "patent US20250302816A1", "about": "“DISRUPTION OF EPITHELIAL BARRIERS FOR MOLECULAR DELIVERY ENHANCEMENT OR EXTRACTION OF EXTRACELLULAR FLUIDS” (The University of Nottingham, priority 2022, published 2025)", "key": {"Calu-3 cell layers": {"tested_on": "Calu-3 cell layers", "experiment": "FD4 permeability and TEER of polarised Calu-3 cell layers", "format": "cell-based, human"}, "[1]": {"tested_on": "diabetic rat model with increased retinal permeability", "experiment": "Topical eye administration in diabetic rat model with increased vascular permeability", "format": "in vivo, Norway Brown rats", "details": "topical co-application vs Bevacizumab alone"}, "Calu-3 cells": {"tested_on": "Calu-3 cells", "experiment": "MTS assay of metabolic activity / cell viability", "format": "cell-based, human", "details": "5 nM to 200 μM, 6 hours", "protocol": "To assess 3OC12-HSL and C7 PQS molecules cytotoxicity on cell viability of Calu-3 cell layers and to monitor short-term cytotoxicity during experiments, Calu-3 cells were treated with 3OC12-HSL and C7 PQS, at concentrations 5 nM, 1 μM, 50 μM, 100 μM and 200 μM, for 6 hours. At the end of the treatment, cell viability (through measuring metabolic activity) of cultures was determined by chromogenic MTS assay."}, "[2]": {"tested_on": "human primary lung epithelium", "experiment": "Human primary lung epithelium, air-liquid interface culture: TEER, FD4 and mAb delivery", "format": "cell-based"}, "all three cell lines": {"tested_on": "all three cell lines", "experiment": "MTS metabolic activity in all three cell lines", "format": "cell-based, human", "details": "200 μM", "procedure": "The viability of Calu-3 cells was determined by a chromogenic MTS method based on the measuring of mitochondrial respiration, assessed by the reduction of 3-(4,5-dimethylthiazol-2-yl)-5-(3-carboxymethoxyphenyl)-2-(4-sulfophenyl)-2H-tetrazolium to formazan. Calu-3 cells were cultured in a 96-well plate (CellTiter 96® Aqueous, Promega) at a density of 10^4 cells per well and incubated at 37° C., 5% CO2 for 24 hours. After 24 hours, the medium was replaced with 100 μl of test compounds dissolved in HBSS and then cells were incubated for 6 hours. HBSS and Triton X-100 (0.1% v/v in HBSS) were used as the negative and positive controls respectively. Bathing solutions were then aspirated and cells washed with PBS. Then culture medium (100 μl at 37° C.) plus MTS reagent (20 μl) were added into each well and cells were incubated for 2 hours. Absorbance at 492 was measured using a Dynex absorbance microplate reader (Dynex Technologies, USA) and converted into a percentage metabolic rate.\nNo significant reduction in cell metabolic activity was observed. Cell viability of >75% was retained in all cases."}, "ARPE-19 cell layers": {"tested_on": "ARPE-19 cell layers", "experiment": "Transwell drug transport across ARPE-19 cell layers with or without 3OC12-HSL", "format": "cell-based, human", "details": "3OC12-HSL 200 μM", "procedure": "(§1) FIG. 1: Macromolecular therapeutics transported across ARPE-19 cell layers in the absence and presence of 3OC12-HSL transported into the basolateral chamber over a period of five hours. Permeability experiments were initiated by applying 0.5 ml of the test solutions (250 μg/ml Aflibercept/Bevacizumab/or Doxorubicin diluted in HBSS/HEPES) to the apical side of the cells (donor compartment of the Transwell) with or without 3OC12-HSL (200 μM). Drug permeability was determined by sampling the basolateral solution at regular time intervals. Data points are expressed as means±SEM, derived from three replicates in triplicate. p values of <0.05 were considered statistically significant. *, ** and *** denote p<0.05, p<0.01 and p<0.001, respectively.\nCalu-3 cells obtained from American Type Culture Collection, USA were cultured using Dulbecco's Modified Eagle Medium (DMEM) supplemented with penicillin (100 U/mL), streptomycin (0.1 mg/mL), amphotericin (0.25 μg/mL), non-essential amino acids (NEM, 1%) and Fetal Bovine Serum (FBS, 10% v/v, Sigma-Aldrich, UK). The human-derived RPE cell line ARPE-19 was obtained from American Type Culture Collection. Cells were grown in Dulbecco's Modified Eagle Medium: F12 (1:1; Gibco, Invitrogen, Carlsbad, CA), including 10% inactivated fetal bovine serum, 100 units/mL penicillin, 100 μg/mL streptomycin, and 2 mM L-glutamine (Sigma-Aldrich). Caco-2 cells were grown in complete culture medium (DMEM supplemented with 17% FBS and 1% antibiotic-antimycotic solution). All cells were kept in a water-jacketed incubator (model 3546, Forma Scientific, Inc., Marietta, OH, USA) maintained at 37° C. and an atmosphere of humidified air with 5% CO2. Medium was replaced every other day until cells reached the 80-90% confluence desired for re-plating or culturing mature, polarised barrier models.\nWhen confluent, cells were seeded on Transwell® filters (12 mm diameter, 0.4 μm pore size; Corning Life Sciences, Holland) at 10^5 cells/cm^2. […]\n(§2) Three polarised epithelial in-vitro tissue models, including lung epithelium (Calu-3), retinal pigment epithelium (ARPE-19) and intestinal epithelial (Caco-2) were used to study the efficiency of 200 μM 3OC12-HSL as a paracellular permeability enhancer for three different drugs: bevacizumab, aflibercept and doxorubicin (applied concentrations 250 μg/mL). The amount of drugs transported was determined via the conversion of fluorescence intensity to amount (μg or ng), using calibration curves constructed via serial standard dilutions. […]\n(§3) Permeability experiments were initiated by applying 0.5 mL of the test solutions to the apical side of the cells (donor compartment of the Transwell®). […] Drug permeability was determined by sampling the basolateral solution at regular time intervals. […]"}, "Caco-2 cell layers": {"tested_on": "Caco-2 cell layers", "format": "cell-based, human", "details": "3OC12-HSL 200 μM", "procedure": "as §1, with “3:” for “1:”, “Caco-2” for “ARPE-19”, “absence (dashed line)” for “absence”, “presence (line)” for “presence”\nCalu-3 cells obtained from American Type Culture Collection, USA were cultured using Dulbecco's Modified Eagle Medium (DMEM) supplemented with penicillin (100 U/mL), streptomycin (0.1 mg/mL), amphotericin (0.25 μg/mL), non-essential amino acids (NEM, 1%) and Fetal Bovine Serum (FBS, 10% v/v, Sigma-Aldrich, UK). The human-derived RPE cell line ARPE-19 was obtained from American Type Culture Collection. […]\nas §2, §3"}, "[3]": {"details": "doxorubicin 250 μg/ml, after 5 hours"}}, "data": [{"smiles": "CCCCCCCCCC(=O)CC(=O)N[C@H]1CCOC1=O", "note": "[Agent 3OC12-HSL, N-(3-oxododecanoyl) homoserine lactone]", "values": [{"measurement": "paracellular passage / flux of FD4 from apical to basolateral chamber", "setting": "Calu-3 cell layers; 200 μM (3OC12-HSL: 200 μM or 1 μM)", "result": "increased paracellular passage of FD4"}, {"measurement": "effect on TEER compared to vehicle only", "setting": "Calu-3 cell layers; 200 μM or 1 μM in 0.15% DMSO in HBSS, p<0.001", "result": "reduced TEER significantly"}, {"measurement": "time after which TEER started increasing / cell layer integrity began to recover", "setting": "Calu-3 cell layers; during exposure", "result": 4, "unit": "h"}, {"measurement": "TEER after 7 hours", "setting": "Calu-3 cell layers; recovery during exposure", "result": "520+/−20 Ω·cm^2"}, {"measurement": "time at which flux of FD4 peaked", "setting": "Calu-3 cell layers; then continued increasing slowly for four hours", "result": 30, "unit": "min"}, {"measurement": "delivery of Bevacizumab into the posterior chamber of rat eyes (confocal images)", "setting": "[1]", "result": "significantly enhance"}, {"measurement": "cytotoxic effect on cell viability within epithelial layers", "setting": "Calu-3 cells", "result": "do not have an adverse cytotoxic effect"}, {"measurement": "TEER (electrical resistance) upon agent exposure", "setting": "[2]", "result": "temporarily reduced"}, {"measurement": "mAb (Mepolizumab) delivery upon agent exposure", "setting": "[2]", "result": "increased"}, {"measurement": "metabolic activity compared to the negative control", "setting": "all three cell lines", "result": "did not change the metabolic activity"}, {"measurement": "increase of bevacizumab permeability by 3OC12-HSL", "setting": "ARPE-19 cell layers; bevacizumab 250 μg/ml, at 60 minutes of exposure", "result": 2.5, "unit": "fold"}, {"measurement": "enhancement of doxorubicin transport by 3OC12-HSL", "setting": "ARPE-19 cell layers; [3]", "result": 6, "unit": "fold"}, {"measurement": "enhancement of aflibercept transport by 3OC12-HSL", "setting": "Caco-2 cell layers; aflibercept 250 μg/ml", "result": 11, "unit": "fold"}, {"measurement": "enhancement of bevacizumab transport by 3OC12-HSL", "setting": "Caco-2 cell layers; bevacizumab 250 μg/ml", "result": 8, "unit": "fold"}, {"measurement": "enhancement of doxorubicin transport by 3OC12-HSL", "setting": "Caco-2 cell layers; [3]", "result": 19, "unit": "fold"}]}]}
